Values of other authors, collected in patent publication US20070243232A1, “Method to treat and prevent asthma attacks using throat lozenges and orally-retained liquids containing magnesium” (priority 2006, published 2007).

Details: injections in the 200 mg range

**Q.** Which “efficacy in treating asthma and effecting a rescue” value does the source give for `O=S(=O)([O-])[O-].[Mg+2]` [magnesium sulfate] here?
**A.** Its value is “modestly effective”.
